Measured values: patent US5773421A, “Antifungal fusacandins” (Abbott Laboratories, priority 1995, dated 1998)
Converted amounts (≈) assume the structure as drawn. Like-named read-outs stand apart in the source and are kept apart here.

Assays:
Test in all cases: MIC by agar dilution method
Format in all cases: cell-based
[1] = tested on: Streptococcus bovis A-5169; conditions: Streptococcus equinus, A5169, 20 h
[2] = tested on: Nocardia asteroides ATTC 9970; conditions: Nocardia asteroides, ATTC9970, 20 h
[3] = tested on: Staphylococcus aureus ATTC 6538p; conditions: Staphylococcus aureus, ATTC6538P, 20 h
[4] = tested on: Streptococcus pyrogenes EES61; conditions: Streptococcus, EES61, 20 h
[5] = tested on: Saccharomyces cereviseae GS1-36; conditions: Saccharomyces, GS136, 20 h
Procedure: (§1) Minimal inhibitory concentrations (MICs) were determined by an agar dilution method. The test compounds were serially diluted in MeOH and 0.2 mL portions were mixed with 20 mL of molten, cooled Sabouraud dextrose agar (Difco). Yeast cell inoculum was prepared by growing cultures on Sabouraud dextrose agar for 18 hours at 32° C. and suspending the cells in phosphate buffered saline. Filamentous fungi were grown under the same conditions for 4 days to obtain spores. The inoculum level for all cultures was adjusted to 10^4 cells using a Petroff-Hauser cell counter. The glutarimide antifungal compounds cycloheximide or amphotericin B were used as a control. Inoculated test plates were incubated at 32° C. and examined after 20 hours.

Candida albicans CCH 442 = tested on: Candida albicans CCH 442
Procedure: as §1

[6] = tested on: Aspergillus niger ATCC 164; conditions: Aspergillus niger, ATCC164, 20 h
Procedure: as §1

[7] = tested on: Candida albicans ATCC 623; conditions: Candida albicans, ATCC623, 20 h
Procedure: as §1

[8] = tested on: Candida tropicalis NRRL-Y-1; conditions: Candida tropicalis, NRRLY1, 20 h
Procedure: as §1

[9] = tested on: Torulopsis glabrata ATCC 155; conditions: Nakaseomyces glabratus, ATCC155, 20 h
Procedure: as §1

[10] = tested on: Candida albicans ATCC 997; conditions: Candida albicans, ATCC997, 20 h
Procedure: as §1

Candida albicans 579a = conditions: read-out: MIC II
Procedure: as §1

[11] = tested on: Candida albicans ATCC 10231
Procedure: as §1

[12] = tested on: Candida albicans ATCC 38247
Procedure: as §1

[13] = tested on: Candida albicans ATCC 62376
Procedure: as §1

[14] = CCH442, Table 6c, 3rd value column (head printed II), III Candida albicans CCH 442, agar dilution, read-out: MIC II
[15] = Table 6c, II Candida albicans 579a, agar dilution
[16] = ATCC10231, Table 6c, I Candida albicans ATCC 10231, agar dilution, read-out: MIC I
[17] = ATCC38247, Table 6c, IV Candida albicans ATCC 38247, agar dilution, read-out: MIC IV
[18] = ATCC62376, Table 6c, V Candida albicans ATCC 62376, agar dilution, read-out: MIC V

Compound	MIC (Candida albicans CCH 442; [14]) [µg/mL]	MIC (Candida albicans 579a; [15]) [µg/mL]	MIC [11, 16] [µg/mL]	MIC [12, 17] [µg/mL]	MIC [13, 18] [µg/mL]	further results
C[C@@H]1C[C@@H]([C@H](O)CC2CC(=O)NC(=O)C2)C(=O)[C@@H](C)C1 [Cycloheximide, cycloheximide, reference compound]	–	–	–	–	–	MIC [1]: 25 µg/mL (≈ 88.9 µM); MIC [2]: 1.6 µg/mL (≈ 5.69 µM); MIC [3]: 0.8 µg/mL (≈ 2.84 µM); MIC [4]: 50 µg/mL (≈ 178 µM); MIC [5]: < 0.05 µg/mL; MIC (Candida albicans CCH 442; Candida albicans, CCH442, 20 h): > 100 µg/mL; MIC [6]: 1.6 µg/mL (≈ 5.69 µM); MIC [7]: > 100 µg/mL; MIC [8]: 0.4 µg/mL (≈ 1.42 µM); MIC [9]: 0.4 µg/mL (≈ 1.42 µM); MIC [10]: > 100 µg/mL
CCCCC/C=C/C=C/[C@@H](O)C/C=C/C=C/C(=O)O[C@@H]1[C@@H](O)[C@H](c2c(O)cc(O)cc2CO)O[C@H](CO)[C@H]1O[C@@H]1O[C@H](COC(=O)c2ccc(-c3ccc(OCCCCCCCC)cc3)cc2)[C@H](O)[C@H](O)[C@H]1O[C@@H]1O[C@H](CO)[C@H](O)[C@H](O)[C@H]1O [Example 38]	25 (≈ 21.2 µM)	25 (≈ 21.2 µM)	25 (≈ 21.2 µM)	50 (≈ 42.3 µM)	12.5 (≈ 10.6 µM)	–
CCCCC/C=C/C=C/[C@@H](O)C/C=C/C=C/C(=O)O[C@@H]1[C@@H](O)[C@H](c2c(O)cc(O)cc2CO)O[C@H](CO)[C@H]1O[C@@H]1O[C@H](COC(=O)c2ccc(CCCC)cc2)[C@H](O)[C@H](O)[C@H]1O[C@@H]1O[C@H](CO)[C@H](O)[C@H](O)[C@H]1O [Example 15]	3.12 (≈ 3.02 µM)	0.78 (≈ 0.755 µM)	3.12 (≈ 3.02 µM)	1.56 (≈ 1.51 µM)	1.56 (≈ 1.51 µM)	–
CCCCC/C=C/C=C/[C@@H](O)C/C=C/C=C/C(=O)O[C@@H]1[C@@H](O)[C@H](c2c(O)cc(O)cc2CO)O[C@H](CO)[C@H]1O[C@@H]1O[C@H](COC(=O)c2cc3ccccc3c3ccccc23)[C@H](O)[C@H](O)[C@H]1O[C@@H]1O[C@H](CO)[C@H](O)[C@H](O)[C@H]1O [Example 27]	3.12 (≈ 2.9 µM)	–	–	–	–	MIC (Candida albicans 579a; Candida albicans, 579A): 3.12 µg/mL (≈ 2.9 µM); MIC ([11]; Candida albicans, ATCC10231, read-out: MIC I): 3.12 µg/mL (≈ 2.9 µM); MIC ([12]; Candida albicans, ATCC38247, read-out: MIC IV): 6.25 µg/mL (≈ 5.8 µM); MIC ([13]; Candida albicans, ATCC62376, read-out: MIC V): 3.12 µg/mL (≈ 2.9 µM)

The remaining molecules from weak to strong by MIC (Candida albicans CCH 442; [14]), led by results:

MIC (Candida albicans CCH 442; [14]) [µg/mL]	MIC (Candida albicans 579a; [15]) [µg/mL]	MIC [11, 16] [µg/mL]	MIC [12, 17] [µg/mL]	MIC [13, 18] [µg/mL]	Compound	further results
1.56 (≈ 1.44 µM)	0.78 (≈ 0.72 µM)	1.56 (≈ 1.44 µM)	1.56 (≈ 1.44 µM)	3.12 (≈ 2.88 µM)	CCCCC/C=C/C=C/[C@@H](O)C/C=C/C=C/C(=O)O[C@@H]1[C@@H](O)[C@H](c2c(O)cc(O)cc2CO)O[C@H](CO)[C@H]1O[C@@H]1O[C@H](COC(=O)c2cccc(-c3ccc(OC)cc3)c2)[C@H](O)[C@H](O)[C@H]1O[C@@H]1O[C@H](CO)[C@H](O)[C@H](O)[C@H]1O [Example 39]	–
0.78 (≈ 0.691 µM)	0.78 (≈ 0.691 µM)	1.56 (≈ 1.38 µM)	3.12 (≈ 2.76 µM)	0.78 (≈ 0.691 µM)	CCCCC/C=C/C=C/[C@@H](O)C/C=C/C=C/C(=O)O[C@@H]1[C@@H](O)[C@H](c2c(O)cc(O)cc2CO)O[C@H](CO)[C@H]1O[C@@H]1O[C@H](COC(=O)c2ccc(-c3ccc(-c4ccccc4)cc3)cc2)[C@H](O)[C@H](O)[C@H]1O[C@@H]1O[C@H](CO)[C@H](O)[C@H](O)[C@H]1O [Example 33]	–
0.39 (≈ 0.371 µM)	0.39 (≈ 0.371 µM)	1.56 (≈ 1.48 µM)	0.78 (≈ 0.742 µM)	1.56 (≈ 1.48 µM)	CCCCC/C=C/C=C/[C@@H](O)C/C=C/C=C/C(=O)O[C@@H]1[C@@H](O)[C@H](c2c(O)cc(O)cc2CO)O[C@H](CO)[C@H]1O[C@@H]1O[C@H](COC(=O)c2ccc3c(c2)-c2ccccc2-3)[C@H](O)[C@H](O)[C@H]1O[C@@H]1O[C@H](CO)[C@H](O)[C@H](O)[C@H]1O [Example 28]	–
